In US20240101570A1 (AMGEN INC., priority 2020, published 2024) one finds IC50 data, which are given here for 25 molecules.

pIC50: −log10 of the molar value.

The test system of one test is HCT116 MTAP null cells. The test can be described thus: HCT116 MTAP null cell proliferation / viability (CellTiter-Glo, 6 days). The test is classed as cell-based. The note with it: HCT116-MTAP null, 144 h, HCT116 MTAP null cells, 6 days, CellTiter-Glo; read-out: HCT-116 MTAP null IC50. The procedure:
(§1) HCT116 MTAP null and WT cells were seeded in 96-well tissue culture plates in RPMI 1640 media+10% fetal bovine serum. Plates were incubated overnight at 37° C. and 5% CO2. Cells were then treated with an 8- or 9-point serial dilution of compound, using a top concentration of 1, or 10 μM, 1:3 serial dilution steps and, a DMSO-only control. Cells were incubated in the presence of drug for 6 days. Effects on cell viability were measured with the CellTiter-Glo® Luminescent Cell Viability Assay (Promega) per manufacturer's recommendation. Assay plates were read on an EnVision™ Multilabel Reader using the Ultra-Sensitive luminescence module. IC50 values were calculated with GraphPad Prism v 5.01 using symmetrical sigmoidal dose-response least squares fit with Hill slope fixed to −1 and top constrain to 100% or GeneData Screener using a 4-parameter logistic model to fit dose response curves.
(§2) Alternatively, compounds could be assayed with a 384 well plate format:
(§3) Compounds were pre-spotted into 384 well plates with a 22-point serial dilution of compound, using a top concentration of 10 or 50 μM, 1:2 serial dilution steps and, a DMSO-only control. HCT116 MTAP null and WT cells were then seeded as above and after 6 days effects on cell viability were measured with the CellTiter-Glo® Luminescent Cell Viability Assay (Promega). Assay plates were read as above and IC50 values were calculated with GeneData Screener using a 4-parameter logistic model to fit dose response curves. The reported IC50 represents the value where the curve transits 50% of control.
For orientation: In ATP-based viability assays light output follows the ATP content of the culture.

The subject of the next test is HCT116 WT cells. The test can be described thus: HCT116 WT cell proliferation / viability (CellTiter-Glo, 6 days). The note with it: Homo sapiens, HCT-116, 144 h, HCT116 WT cells, 6 days, CellTiter-Glo; read-out: HCT-116 WT IC50. The class given is cell-based. How it is done: as §1, §2, §3

Regarding `C[C@H](c1ncccn1)N(Cc1ccc(C(F)(F)F)cn1)C(=O)c1ccc2nc(N)c3ccncc3c2c1` [Example 633, 5-amino-N-((1R)-1-(2-pyrimidinyl)ethyl)-N-((5-(trifluoromethyl)-2-pyridinyl)methyl)benzo[c][2,6]naphthyridine-9-carboxamide], the figures for the pIC50 in the test with HCT116 MTAP null cells and in the test with HCT116 WT cells were 7.89 and 7.15, respectively.
The like results for `Nc1nc2cnc(C(=O)N(Cc3ccc(Br)nn3)CC3CC3)cc2c2c1COC2` [Example 671, 4-amino-N-((6-bromo-3-pyridazinyl)methyl)-N-(cyclopropylmethyl)-1,3-dihydrofuro[3,4-c][1,7]naphthyridine-8-carboxamide] were, in that order, 7.10 and 5.40.
The like results for `CN(Cc1ccc(C#N)cn1)C(=O)c1cc2c3c(c(N)nc2cn1)COC3` [Example 367, 4-amino-N-((5-cyano-2-pyridinyl)methyl)-N-methyl-1,3-dihydrofuro[3,4-c][1,7]naphthyridine-8-carboxamide] were, in that order, 5.64 and under 4.30.
The like results for `Cn1ncc2c(N)nc3cc(Cl)c(C(=O)N(Cc4ccc(C(F)(F)F)cn4)C4CCC4)cc3c21` [Example 798, 4-amino-7-chloro-N-cyclobutyl-1-methyl-N-((5-(trifluoromethyl)-2-pyridinyl)methyl)-1H-pyrazolo[4,3-c]quinoline-8-carboxamide] were, in that order, 8.00 and 6.82.
For the molecule `CC(C)N(Cc1ccc(C2CC2)nc1)C(=O)c1cc2c3c(c(N)nc2cn1)COC3` [Example 383, 4-amino-N-((6-cyclopropyl-3-pyridinyl)methyl)-N-(2-propanyl)-1,3-dihydrofuro[3,4-c][1,7]naphthyridine-8-carboxamide], the pIC50 in the test on HCT116 MTAP null cells is 5.88; in the test with HCT116 WT cells, 4.37.
As to `C[C@H](c1ncccc1F)N(Cc1ccc(Br)nn1)C(=O)c1ccc2nc(N)c3c(c2c1)CCC3` [Example 624, 4-amino-N-((6-bromo-3-pyridazinyl)methyl)-N-((1R)-1-(3-fluoro-2-pyridinyl)ethyl)-2,3-dihydro-1H-cyclopenta[c]quinoline-8-carboxamide], the pIC50 with HCT116 MTAP null cells is 7.68; in the test on HCT116 WT cells, 6.72.
For the molecule `CC(C)N(Cc1ccc(C2CC2)cn1)C(=O)c1cc2c3c(c(N)nc2cn1)COC3` [Example 385, 4-amino-N-((5-cyclopropyl-2-pyridinyl)methyl)-N-(2-propanyl)-1,3-dihydrofuro[3,4-c][1,7]naphthyridine-8-carboxamide], the pIC50 was 6.80 with HCT116 MTAP null cells and 5.14 in the test with HCT116 WT cells.
`C[C@@H](c1ccc(C(F)(F)C(F)(F)F)cc1)N(C)C(=O)c1cc2c(cc1F)nc(N)c1cnn(C)c12` [Example 787, 4-amino-7-fluoro-N,1-dimethyl-N-((1S)-1-(4-(pentafluoroethyl)phenyl)ethyl)-1H-pyrazolo[4,3-c]quinoline-8-carboxamide]: the pIC50 with HCT116 MTAP null cells was 6.06; with HCT116 WT cells it was 5.05.
The like results for `COc1cc2nc(N)c3c(c2cc1C(=O)N(C)Cc1ccc(C(F)(F)F)cn1)COC3` [Example 502, 4-amino-7-methoxy-N-methyl-N-((5-(trifluoromethyl)-2-pyridinyl)methyl)-1,3-dihydrofuro[3,4-c]quinoline-8-carboxamide] were, in that order, 5.41 and 4.33.
Turning to `C[C@@H]1OCc2c1c(N)nc1cnc(C(=O)N(Cc3ccc(C(F)(F)F)cn3)C3CC3)cc21` [Example 318, (3S)-4-amino-N-cyclopropyl-3-methyl-N-((5-(trifluoromethyl)-2-pyridinyl)methyl)-1,3-dihydrofuro[3,4-c][1,7]naphthyridine-8-carboxamide], the pIC50 with HCT116 MTAP null cells is 5.31; with HCT116 WT cells it was 4.44.
The like results for `CN(Cc1ccc(S(F)(F)(F)(F)F)cc1)C(=O)c1ccc2nc(N)c3c(c2c1)COC3` [Example 510, 4-amino-N-methyl-N-(4-(pentafluoro-lambda~6~- sulfanyl)benzyl)-1,3-dihydrofuro[3,4-c]quinoline-8-carboxamide] were, in that order, 7.19 and 5.58.
Take `CN(Cc1ccc(C(F)(F)F)nn1)C(=O)c1cc2c3c(c(N)nc2cc1F)COC3` [Example 359, 4-amino-7-fluoro-N-methyl-N-((6-(trifluoromethyl)-3-pyridazinyl)methyl)-1,3-dihydrofuro[3,4-c]quinoline-8-carboxamide]: the results for the pIC50 in the test with HCT116 MTAP null cells and in the test on HCT116 WT cells were 6.65 and 4.99, respectively.
The like results for `CCN(Cc1ccc(C(F)(F)F)cn1)C(=O)c1ccc2nc(N)c3c(cnn3C)c2c1` [Example 422, 4-amino-N-ethyl-3-methyl-N-((5-(trifluoromethyl)-2-pyridinyl)methyl)-3H-pyrazolo[3,4-c]quinoline-8-carboxamide] were, in that order, 5.17 and 4.97.
With `Cn1cc(N(Cc2ccc(C(F)(F)F)nn2)C(=O)c2cc3c4c(c(N)nc3cn2)COC4)cn1` [Example 711, 4-amino-N-(1-methyl-1H-pyrazol-4-yl)-N-((6-(trifluoromethyl)-3-pyridazinyl)methyl)-1,3-dihydrofuro[3,4-c][1,7]naphthyridine-8-carboxamide], the pIC50 in the test with HCT116 MTAP null cells is 6.83; in the test with HCT116 WT cells, 5.32.
The like results for `C[C@H]1OCc2c1c(N)nc1ccc(C(=O)N(Cc3ccc(Br)nn3)CC3CC3)cc21` [Example 326, (3R)-4-amino-N-((6-bromo-3-pyridazinyl)methyl)-N-(cyclopropylmethyl)-3-methyl-1,3-dihydrofuro[3,4-c]quinoline-8-carboxamide] were, in that order, 7.72 and 5.89.
For `CC1(CN(Cc2ccc(C(F)(F)F)cn2)C(=O)c2ccc3nc(N)c4c(c3c2)COC4)CC1` [Example 337, 4-amino-N-((1-methylcyclopropyl)methyl)-N-((5-(trifluoromethyl)-2-pyridinyl)methyl)-1,3-dihydrofuro[3,4-c]quinoline-8-carboxamide], the pIC50 was 7.48 with HCT116 MTAP null cells and 6.15 with HCT116 WT cells.
Turning to `COC[C@@H](C)N(Cc1ccc(Br)nn1)C(=O)c1ccc2nc(N)c3sccc3c2c1` [Example 643, 4-amino-N-((6-bromo-3-pyridazinyl)methyl)-N-((2R)-1-methoxy-2-propanyl)thieno[2,3-c]quinoline-8-carboxamide], the pIC50 with HCT116 MTAP null cells was 6.75; with HCT116 WT cells, 5.79.
In the case of `CCN(Cc1ccc(C(F)(F)F)cn1)C(=O)c1ccc2nc(N)c3ccncc3c2c1` [Example 428, 5-amino-N-ethyl-N-((5-(trifluoromethyl)-2-pyridinyl)methyl)benzo[c][2,6] naphthyridine-9-carboxamide], the pIC50 was 7.00 with HCT116 MTAP null cells and 5.90 in the test with HCT116 WT cells.
The like results for `Nc1nc2cc(Cl)c(C(=O)N(Cc3ccc(C4CC4)cn3)C3CC3)cc2c2c1COC2` [Example 480, 4-amino-7-chloro-N-cyclopropyl-N-((5-cyclopropyl-2-pyridinyl)methyl)-1,3-dihydrofuro[3,4-c]quinoline-8-carboxamide] were, in that order, 6.57 and 5.84.
As for `CCN(Cc1ccc(C2CC2)cn1)C(=O)c1cc2c(cn1)nc(N)c1cnn(C)c12` [Example 541, 4-amino-N-((5-cyclopropyl-2-pyridinyl)methyl)-N-ethyl-1-methyl-1H-pyrazolo[4,3-c][1,7]naphthyridine-8-carboxamide], the pIC50 in the test with HCT116 MTAP null cells is 7.43; in the test on HCT116 WT cells, 6.26.
The like results for `CN(Cc1ccc(C(F)(F)F)nc1)C(=O)c1ccc2nc(N)c3c(c2c1)COC3` [Example 400, 4-amino-N-methyl-N-((6-(trifluoromethyl)-3-pyridinyl)methyl)-1,3-dihydrofuro[3,4-c]quinoline-8-carboxamide] were, in that order, 6.01 and under 5.00.
The like results for `C[C@H](c1ccc(C(F)(F)C(F)(F)F)cc1)N(C)C(=O)c1cc2c(cn1)nc(N)c1c2cnn1C` [Example 786, 4-amino-N,3-dimethyl-N-((1R)-1-(4-(pentafluoroethyl)phenyl)ethyl)-3H-pyrazolo[3,4-c][1,7]naphthyridine-8-carboxamide] were, in that order, 6.90 and 5.13.
As to `C[C@H](c1ncccn1)N(Cc1ccc(Br)nn1)C(=O)c1ccc2nc(N)c3c(c2c1)COC3` [Example 657, 4-amino-N-((6-bromo-3-pyridazinyl)methyl)-N-((1R)-1-(2-pyrimidinyl)ethyl)-1,3-dihydrofuro[3,4-c]quinoline-8-carboxamide], the results for the pIC50 with HCT116 MTAP null cells and with HCT116 WT cells were 7.89 and 6.71, respectively.
The like results for `CCN(Cc1ccc(OC(F)F)nn1)C(=O)c1ccc2nc(N)c3c(c2c1)CO[C@@H]3C` [Example 726, (3R)-4-amino-N-((6-(difluoromethoxy)-3-pyridazinyl)methyl)-N-ethyl-3-methyl-1,3-dihydrofuro[3,4-c]quinoline-8-carboxamide] were, in that order, 6.96 and 5.12.
With `CN(Cc1ccc(C(F)(F)F)c(F)c1)C(=O)c1ccc2nc(N)c3cnn(C)c3c2c1` [Example 526, 4-amino-N-(3-fluoro-4-(trifluoromethyl)benzyl)-N,1-dimethyl-1H-pyrazolo[4,3-c]quinoline-8-carboxamide], the pIC50 in the test on HCT116 MTAP null cells was 6.77; in the test with HCT116 WT cells it was 5.16.

For orientation: pIC50 means −log10 of the IC50, conventionally taken in molar units.
